Test results reported in patent US20260188423A1, “IDENTIFICATION OF CELL SURFACE ANTIGENS WHICH INDUCE T-CELL RESPONSES AND THEIR USES” (priority 2022, published 2026).
“Also recorded” adds a separate entry of the source. Where no end group is shown, it is not given here.

Assays:
[1] = test system: Monocyte-derived dendritic cells; type: cell-based, human
HeLa cells = test: Cellular uptake of fluorescent-labeled peptide vaccines, fluorescent microscopy; type: cell-based, human
Protocol: Methods: In this experiment, the uptake of two fluorescent-labeled peptide vaccines was examined using a fluorescent microscope in cultured cells. HeLa cells were grown on cover slides for one day and then treated with peptide vaccines. Cells were fixed with 4% paraformaldehyde, washed with PBS, and analyzed with fluorescent microscopy.

[2] = test system: peritoneal tumour biopsies; test: Transcriptome analysis of the Murcia patient's peritoneal tumour biopsies; details: target of 2nd generation personalized vaccines
Text: All the putative 8-20 amino acids long epitopes were created from these proteins and used for designing the 2nd generation of personalized vaccines according to the invention. […] These antigens have different length and amino acid sequences. All selected peptide antigen contains multiple highly ranked epitopes (13-66) presented on the cell surface by the patient's HLA class I and class II molecules. The range of the potency score is indicated for the selected epitopes. Epitopes presented by the patient's HLA class I and class II molecules are indicated to induce CD8 and CD4 responses, respectively. As described in the invention, the potency of each epitope in the vaccines was calculated and indicated to inform the physician about the predicted efficacy of the personalised vaccines in the recipient.

Fluoresc-KSS-QYIKANSKFIGITE-RRRRRRRR-LNVPMVATV (fluorescein-KSSQYIKANSKFIGITERRRRRRRRLNVPMVATV)
uptake in dendritic cells compared to the control vaccines [1]: substantial increase in the uptake; also recorded: exceptional uptake

Fluoresc-KSSQYIKANSKFIGITEAAALNVPMVATV-NH2 (fluorescein-KSSQYIKANSKFIGITEAAALNVPMVATV-NH2) [peptide vaccines (CD4-CD8), control peptide vaccine lacking the R8 component, reference compound]
cellular uptake (HeLa cells; 120 minutes): poorly detectable cellular uptake

Fluoresc-KSSQYIKANSKFIGITERRRRRRRRLNVPMVATV-NH2 (fluorescein-KSSQYIKANSKFIGITERRRRRRRRLNVPMVATV-NH2) [vaccine (CD4-R8-CD8)]
cellular uptake (HeLa cells; 120 minutes): diffuse distribution throughout the cytoplasm and nucleus | cellular uptake compared to the control vaccines (HeLa cells; after 30 minutes and 120 minutes of incubation): substantial increase in the uptake | cellular uptake (HeLa cells; within 30 minutes): rapid uptake into both the cytoplasm and nucleus

B1: ATAD2 (protein, UniProt Q6PL18 1-1390, looked up)
ATPase family AAA …: MVVLRSSLELHNHSAASATGSLDLSSDFLSLEHIGRRRLRSAGAAQKKPAATTAKAGDGSSVKEVETYHRTRALRSLRKDAQNSSDSSFEKNVEITEQLANGRHFTRQLARQQADKKKEEHREDKVIPVTRSLRARNIVQSTEHLHEDNGDVEVRRSCRIRSRYSGVNQSMLFDKLITNTAEAVLQKMDDMKKMRRQRMRELEDLGVFNETEESNLNMYTRGKQKDIQRTDEETTDNQEGSVESSEEGEDQEHEDDGEDEDDEDDDDDDDDDDDDDDEDDEDEEDGEEENQKRYYLRQRKATVYYQAPLEKPRHQRKPNIFYSGPASPARPRYRLSSAGPRSPYCKRMNRRRHAIHSSDSTSSSSSEDEQHFERRRKRSRNRAINRCLPLNFRKDELKGIYKDRMKIGASLADVDPMQLDSSVRFDSVGGLSNHIAALKEMVVFPLLYPEVFEKFKIQPPRGCLFYGPPGTGKTLVARALANECSQGDKRVAFFMRKGADCLSKWVGESERQLRLLFDQAYQMRPSIIFFDEIDGLAPVRSSRQDQIHSSIVSTLLALMDGLDSRGEIVVIGATNRLDSIDPALRRPGRFDREFLFSLPDKEARKEILKIHTRDWNPKPLDTFLEELAENCVGYCGADIKSICAEAALCALRRRYPQIYTTSEKLQLDLSSINISAKDFEVAMQKMIPASQRAVTSPGQALSTVVKPLLQNTVDKILEALQRVFPHAEFRTNKTLDSDISCPLLESDLAYSDDDVPSVYENGLSQKSSHKAKDNFNFLHLNRNACYQPMSFRPRILIVGEPGFGQGSHLAPAVIHALEKFTVYTLDIPVLFGVSTTSPEETCAQVIREAKRTAPSIVYVPHIHVWWEIVGPTLKATFTTLLQNIPSFAPVLLLATSDKPHSALPEEVQELFIRDYGEIFNVQLPDKEERTKFFEDLILKQAAKPPISKKKAVLQALEVLPVAPPPEPRSLTAEEVKRLEEQEEDTFRELRIFLRNVTHRLAIDKRFRVFTKPVDPDEVPDYVTVIKQPMDLSSVISKIDLHKYLTVKDYLRDIDLICSNALEYNPDRDPGDRLIRHRACALRDTAYAIIKEELDEDFEQLCEEIQESRKKRGCSSSKYAPSYYHVMPKQNSTLVGDKRSDPEQNEKLKTPSTPVACSTPAQLKRKIRKKSNWYLGTIKKRRKISQAKDDSQNAIDHKIESDTEETQDTSVDHNETGNTGESSVEENEKQQNASESKLELRNNSNTCNIENELEDSRKTTACTELRDKIACNGDASSSQIIHISDENEGKEMCVLRMTRARRSQVEQQQLITVEKALAILSQPTPSLVVDHERLKNLLKTVVKKSQNYNIFQLENLYAVISQCIYRHRKDHDKTSLIQKMEQEVENFSCSR
Relative expression [2]: 9
